Peptide text beside a SMILES is read from it. * marks the point of attachment. Cbz = O=C(OCc1ccccc1)*
Legend:
[1] = system: Mast4; experiment: Mast4-PDZ expression in C3H10T1/2 cells transfected with Mast4-PDZ and GSK-3β, CHIR-99021 treatment (western blot); assay type: cell-based, murine; conditions: CHIR-99021 10 μM for 9 h (FIG. 4d)
Description: Cell lysates were immunoprecipitated with Flag antibody and immunoblotted with the indicated antibodies. k MC3T3-E1 cells were transfected with Mast4-PDZ WT and Δ632-636, followed by treatment of Wnt3a conditioned medium (2.5 h). l 6xOSE-Luc, Mast4-PDZ WT and Δ632-636 were transfected to C3H10T1/2 cells, followed by treatment of Wnt3a conditioned medium (18 h). […] Unpaired two-tailed Student's t test (P<0.05) with Benjamini-Hochberg correction for multiple tests was conducted for all statistical analyses. b-k The representative results were obtained from at least three independent experiments. TCL: total cell lysates.
For the immunoprecipitation assay, cell extracts were incubated with the indicated primary antibodies overnight at 4° C. Antibody-bound proteins were precipitated with Dynabeads Protein G (Invitrogen). Cells were lysed in a RIPA buffer containing protease inhibitor cocktail (Complete; Roche). Samples were separated by SDS-PAGE, followed by electrotransfer to polyvinylidene difluoride membranes (PVDF; Millipore). The membrane was blocked for 1 h at room temperature and incubated overnight at 4° C. with the primary antibodies. Horseradish peroxidase-conjugated antibodies (Millipore) were used as secondary antibodies. The peroxidase reaction products were visualized with WESTZOL (Intron). All signals were detected by Amersham Imager 600 (GE Healthcare Life Sciences).

[2] = system: Mast4; experiment: Mast4 degradation (cycloheximide chase) in Mast4-PDZ-overexpressing C3H10T1/2 cells with CHIR-99021; assay type: cell-based, murine; parameters: dose or concentration left out as unconfirmed; conditions: (FIG. 22d)
Excerpt: FIGS. 22a-22e show Mast4 induction during osteogenesis and GSK-3b regulation of Mast4 expression. (a) The schematic representation of osteogenic differentiation of C3H10T1/2 cells. (b) The indicated C3H10T1/2 cells were differentiated into osteoblasts for 10 days, followed by Alizarin Red S staining. (c) C3H10T1/2 cells were differentiated into osteoblasts for 10 days, followed by western blot analysis for the expression of Mast4 and key Wnt signaling molecules. (d) Mast4-PDZ-overexpressing C3H10T1/2 cells were treated with cycloheximide (CHX; […]) for the indicated time in the absence or presence of CHIR-99021 ([…]). (e) The wild-type and GSK-3b-depleted HA-Mast4-PDZ-overexpressing C3H10T1/2 cells were treated with MG-132 ([…] for 4 h) and CHIR-99021 ([…]). (b-d) The representative result were obtained from at least three separate experiments.
For the immunoprecipitation assay, cell extracts were incubated with the indicated primary antibodies overnight at 4° C. Antibody-bound proteins were precipitated with Dynabeads Protein G (Invitrogen). Cells were lysed in a RIPA buffer containing protease inhibitor cocktail (Complete; Roche). Samples were separated by SDS-PAGE, followed by electrotransfer to polyvinylidene difluoride membranes (PVDF; Millipore). […] All signals were detected by Amersham Imager 600 (GE Healthcare Life Sciences).

[3] = system: Sox9; experiment: Mast4-induced Sox9 degradation in C3H10T1/2 cells with MG-132 treatment (western blot); assay type: cell-based, murine; conditions: C3H10T1/2 cells transfected with Myc-Sox9 and Mast4-PDZ, MG-132 10 mM for 6 h (FIG. 16e)
Description: (a) The indicated C3H10T1/2 cells were differentiated into chondrocytes for 6 days, followed by Sox9 ChIP on the Col2a1 gene. (b) 4xCol2a1-luc was transiently overexpressed in LPCX control and Mast4 PDZ-overexpressing C3H10T1/2 cells, followed by TGF-b1 treatment (3 ng/ml for 24 h). (a and b) Data are representative mean±SD of three independent experiments, each conducted in triplicate (n=3). Unpaired two-tailed Student's t test (P<0.05) with Benjamini-Hochberg correction for multiple tests was conducted for all statistical analyses. P values versus WT. (c) Full-length (HA-Mast4-FULL) and truncated Mast4 (HA-Mast4-PDZ) together with siMAST4 (50 pmol) that targets exogenous Mast4 (human) were co-transfected with Myc-Sox9 into C3H10T1/2 cells. Due to inefficient detection of full length Mast4 with HA antibody, Mast4 antibody which recognizes the C-terminus was used. (d) The indicated C3H10T1/2 cells were differentiated to chondrocytes for 6 days, followed by MG-132 ([…] for 6 h) treatment. Endogenous Sox9 was immunoprecipitated, and the complexes were analyzed by western blot using phospho-serine and Sox9 antibodies. […]
(§1) For the immunoprecipitation assay, cell extracts were incubated with the indicated primary antibodies overnight at 4° C. […] All signals were detected by Amersham Imager 600 (GE Healthcare Life Sciences).

[4] = system: Mast4; experiment: Mast4 expression in human primary chondrocytes treated with TGF-β1; assay type: cell-based; conditions: TGF-β1 5 ng/ml for 24 h and 48 h (FIG. 3g)
Description: (§2) FIGS. 3a-3g show TGF-β1-induced suppression of Mast4 enhances chondrogenesis by increasing Sox9-Smad3 association. a Sox9 and Smad3 were co-transfected to wild-type and Mast4-depleted C3H10T1/2 cells, followed by TGF-β1 treatment (5 ng/ml for 30 minutes). Sox9 was immunoprecipitated using HA antibody. Band intensities representing GFP-Smad3 and HA-Sox9 expression level in the immunoprecipitates were converted by densitometry using ImageJ software into the ratio of Smad3 to Sox9. Data are reported as mean±SD of three independent experiments (n=3). Unpaired two-tailed Student's t test (P<0.05) was conducted for statistical analysis. b Smad3 ChIP on Col2a1 gene assay was performed in differentiating C3H10T1/2 cells for 6 days. c Mast4 expression was examined by western blot and RT-PCR of C3H10T1/2 cells treated with TGF-β1 for 48 h. d Luciferase assay was conducted in undifferentiated C3H10T1/2 cells. Vactosertib (0.5 μM) was pre-treated for 2 h prior to TGF-β1 (5 ng/ml) treatment for 24 h. e Smad3 ChIP assay on Mast4 gene was conducted in C3H10T1/2 cells undergoing chondrogenic differentiation for 6 days. […]

[5] = system: Mast4 promoter; experiment: Mast4 promoter luciferase assay in undifferentiated C3H10T1/2 cells; assay type: cell-based, murine; conditions: TGF-β1 5 ng/ml for 24 h (FIG. 3d)
Description: as §2, with “cells.” for “cells. Vactosertib (0.5 μM) was pre-treated for 2 h prior to TGF-β1 (5 ng/ml) treatment for 24 h. e Smad3 ChIP assay on Mast4 gene was conducted in C3H10T1/2 cells undergoing chondrogenic differentiation for 6 days.”
C3H10T1/2 cells were transiently transfected with 4xCol2a1-luc, Smad3/4-responsive promoter (CAGA)12-luc, SBE-luc, 6xOSE-luc, MAST4-promoter luciferase report plasmids, HA-MAST4 PDZ, Myc-Sox9 WT/S494A/S494D plasmids using polyethylenimine (Polysciences). […] The luciferase activities were analyzed using the Luciferase Assay System kit (Promega) according to the manufacturer's protocol. […]

[6] = system: Mast4; experiment: Mast4 expression by western blot and RT-PCR in C3H10T1/2 cells treated with TGF-β1; assay type: cell-based, murine; conditions: TGF-β1 for 48 h (FIG. 3c)
Description: FIGS. 3a-3g show TGF-β1-induced suppression of Mast4 enhances chondrogenesis by increasing Sox9-Smad3 association. a Sox9 and Smad3 were co-transfected to wild-type and Mast4-depleted C3H10T1/2 cells, followed by TGF-β1 treatment (5 ng/ml for 30 minutes). Sox9 was immunoprecipitated using HA antibody. Band intensities representing GFP-Smad3 and HA-Sox9 expression level in the immunoprecipitates were converted by densitometry using ImageJ software into the ratio of Smad3 to Sox9. Data are reported as mean±SD of three independent experiments (n=3). […]
Total RNA was prepared using EasyBlue (Boca Scientific). […] Quantitative real-time PCR was performed using Power SYBR Green PCR Master Mix (Applied Biosystems) on the QuantStudio 5 Real-Time PCR Instrument (Applied Biosystems). The mRNA levels of various genes were measured in triplicate and normalized with Gapdh. […]
as §1

[7] = system: Mast4 promoter; experiment: Smad3 ChIP assay on Mast4 gene in differentiating C3H10T1/2 cells; assay type: cell-based, murine; conditions: 6 days chondrogenic differentiation, TGF-β1 5 ng/ml for 48 h (FIG. 3e, FIG. 20)
Description: as §2

[8] = biological target: Mast4-PDZ P628A/Y634A (UniProt O15021)
Mast4-PDZ P628A/Y634A, sequence (O15021 whole entry P628A/Y634A, looked up): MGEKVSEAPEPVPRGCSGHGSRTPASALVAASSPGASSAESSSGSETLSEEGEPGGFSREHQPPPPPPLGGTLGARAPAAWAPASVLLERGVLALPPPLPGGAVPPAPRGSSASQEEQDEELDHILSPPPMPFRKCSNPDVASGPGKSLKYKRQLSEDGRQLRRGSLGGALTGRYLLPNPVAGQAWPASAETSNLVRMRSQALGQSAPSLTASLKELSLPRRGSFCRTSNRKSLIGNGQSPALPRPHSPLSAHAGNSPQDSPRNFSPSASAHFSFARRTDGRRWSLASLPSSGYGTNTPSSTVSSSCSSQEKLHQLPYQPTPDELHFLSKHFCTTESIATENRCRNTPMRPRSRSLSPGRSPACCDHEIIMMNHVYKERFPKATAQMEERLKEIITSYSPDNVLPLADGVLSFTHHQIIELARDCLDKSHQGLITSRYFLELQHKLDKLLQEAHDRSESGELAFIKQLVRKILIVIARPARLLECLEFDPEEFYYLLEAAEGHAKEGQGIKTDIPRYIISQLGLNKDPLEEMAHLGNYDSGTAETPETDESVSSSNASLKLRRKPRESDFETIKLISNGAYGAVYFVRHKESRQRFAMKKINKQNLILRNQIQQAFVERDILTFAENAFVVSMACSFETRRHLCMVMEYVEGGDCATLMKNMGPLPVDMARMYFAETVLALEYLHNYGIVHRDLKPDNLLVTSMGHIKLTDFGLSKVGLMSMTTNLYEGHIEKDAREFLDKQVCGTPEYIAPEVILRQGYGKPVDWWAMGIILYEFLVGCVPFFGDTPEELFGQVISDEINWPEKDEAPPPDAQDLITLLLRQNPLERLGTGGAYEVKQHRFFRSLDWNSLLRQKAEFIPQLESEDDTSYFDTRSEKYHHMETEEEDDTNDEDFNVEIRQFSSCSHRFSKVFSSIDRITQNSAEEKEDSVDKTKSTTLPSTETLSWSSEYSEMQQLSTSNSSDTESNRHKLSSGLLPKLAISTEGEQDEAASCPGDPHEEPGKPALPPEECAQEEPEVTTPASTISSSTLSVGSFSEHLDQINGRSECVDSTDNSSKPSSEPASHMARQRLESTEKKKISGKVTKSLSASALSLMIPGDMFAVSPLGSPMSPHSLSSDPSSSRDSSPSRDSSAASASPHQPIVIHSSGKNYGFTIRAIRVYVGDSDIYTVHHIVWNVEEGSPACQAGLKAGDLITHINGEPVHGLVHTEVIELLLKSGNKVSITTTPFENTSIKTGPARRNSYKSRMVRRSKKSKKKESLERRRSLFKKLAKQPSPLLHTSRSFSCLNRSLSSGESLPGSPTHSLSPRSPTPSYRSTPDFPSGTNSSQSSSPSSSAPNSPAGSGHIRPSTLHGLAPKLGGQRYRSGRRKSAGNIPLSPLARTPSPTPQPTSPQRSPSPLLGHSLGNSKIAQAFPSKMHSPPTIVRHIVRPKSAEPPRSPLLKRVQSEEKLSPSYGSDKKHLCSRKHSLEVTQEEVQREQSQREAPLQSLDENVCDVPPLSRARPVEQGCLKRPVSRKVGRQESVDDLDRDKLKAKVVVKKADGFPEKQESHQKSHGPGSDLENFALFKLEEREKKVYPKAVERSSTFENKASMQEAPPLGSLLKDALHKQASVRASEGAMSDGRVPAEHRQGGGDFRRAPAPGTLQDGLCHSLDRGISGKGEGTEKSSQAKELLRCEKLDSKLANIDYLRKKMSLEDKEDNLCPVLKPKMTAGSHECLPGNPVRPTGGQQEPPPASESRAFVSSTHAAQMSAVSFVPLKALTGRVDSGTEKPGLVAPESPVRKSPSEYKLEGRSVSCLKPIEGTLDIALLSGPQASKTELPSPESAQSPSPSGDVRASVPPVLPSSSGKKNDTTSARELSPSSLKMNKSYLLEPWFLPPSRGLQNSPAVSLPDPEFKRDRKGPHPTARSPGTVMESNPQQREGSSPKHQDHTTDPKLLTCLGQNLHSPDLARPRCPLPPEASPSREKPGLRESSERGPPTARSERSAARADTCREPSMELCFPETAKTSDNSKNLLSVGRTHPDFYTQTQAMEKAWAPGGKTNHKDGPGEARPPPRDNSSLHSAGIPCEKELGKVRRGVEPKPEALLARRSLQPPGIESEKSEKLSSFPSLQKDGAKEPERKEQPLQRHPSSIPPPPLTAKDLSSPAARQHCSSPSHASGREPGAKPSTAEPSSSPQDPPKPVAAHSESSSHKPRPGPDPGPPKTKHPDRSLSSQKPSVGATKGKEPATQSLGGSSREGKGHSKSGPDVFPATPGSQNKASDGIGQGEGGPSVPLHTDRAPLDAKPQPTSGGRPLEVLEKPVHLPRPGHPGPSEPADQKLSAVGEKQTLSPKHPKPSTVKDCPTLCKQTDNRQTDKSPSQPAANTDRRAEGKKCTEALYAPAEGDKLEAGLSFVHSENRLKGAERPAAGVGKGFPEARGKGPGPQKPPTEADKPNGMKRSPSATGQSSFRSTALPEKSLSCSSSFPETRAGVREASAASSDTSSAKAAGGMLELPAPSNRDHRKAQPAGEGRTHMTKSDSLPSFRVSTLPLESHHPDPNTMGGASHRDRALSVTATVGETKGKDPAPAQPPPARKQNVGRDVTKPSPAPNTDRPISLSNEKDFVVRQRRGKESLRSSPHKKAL

## Cc1c[nH]c(-c2cnc(NCCNc3ccc(C#N)cn3)nc2-c2ccc(Cl)cc2Cl)n1 [GSK-3β inhibitor, CHIR-99021]
[1]
  Mast4 expression: dramatically increased
[2]
  Mast4 degradation: significantly delayed

## CC(C)C[C@@H](C=O)NC(=O)[C@H](CC(C)C)NC(=O)[C@H](CC(C)C)NC(=O)OCc1ccccc1 [MG-132] (Cbz-Leu-Leu-Leu-aldehyde)
[3]
  Mast4-induced Sox9 degradation: restored

## TGF-β1: TGF-β1 protein (R&D Systems) used to treat cells
[4]
  Mast4 mRNA expression level: gradual reduction
[5]
  Mast4 promoter activity: suppressed
[6]
  mRNA and protein expression of Mast4: markedly suppressed
[7]
  Smad3 occupancy at the Mast4 promoter: significantly increased

## Smurf1
[8]
  Smurf1-mediated Mast4 degradation: mutation of PY-like motif in the kinase domain of Mast4 (P628A/Y634A) prevented Smurf1-mediated Mast4 degradation

Source: patent publication US20250136991A1, “METHOD OF MAKING BONE AND CARTILAGE” (priority 2022, published 2025)
